Consider 16 molecules from PubChem BioAssay (NCI).

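A five-concentration, 48-hour dose response in 96-well plates underlies each endpoint, interpolated linearly between surrounding concentrations. Definition used: TGI = concentration required for complete inhibition of growth.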

Common to all, as to assay: NCI anticancer screen, dose series, 48 h
Assay [1] concerns NCI-H460 lung.
The subject of assay [2] is CAKI-1 renal.
For assay [3], the system named is HCT-116 colon.
Assay [4] concerns OVCAR-5 ovarian.
Assay [5] has as its system T-47D breast.
The subject of assay [6] is OVCAR-4 ovarian.
Assay [7] relates to 786-0 renal.
Assay [8] relates to K-562 leukemia.
The test system of assay [9] is LOX IMVI melanoma.
Assay [10] relates to PC-3 prostate.
The subject of assay [11] is TK-10 renal.
Assay [12] relates to SK-OV-3 ovarian.
The subject of assay [13] is SW-620 colon.
The test system of assay [14] is HOP-92 NSCLC.
The test system of assay [15] is KM12 colon.
In assay [16] the test system is RXF 393 renal.
Assay [17] has as its system UACC-257 melanoma.
The subject of assay [18] is NCI/ADR-RES ovarian.
The test system of assay [19] is NCI-H522 lung.
Assay [20] has as its system HL-60(TB) leukemia.

In the case of `O=S(=O)(Nc1nc2ccccc2nc1Nc1cccc2ccccc12)c1ccccc1`, the TGI in [1] is more than 100 µM; in assay [2], more than 100 µM; in [3], more than 100 µM; in assay [4] it was more than 100 µM; in [5], more than 100 µM; in assay [6], 5.99 µM. In addition, the TGI was 68.4 µM in assay [7]; more than 100 µM in assay [8]; more than 100 µM in [9]; more than 100 µM in assay [10]; 28.9 µM in assay [11]; more than 100 µM in assay [12]. Besides, the TGI in assay [13] is more than 100 µM; in assay [14] it was 16.5 µM; in [15], more than 100 µM; in assay [16], 78.9 µM; in assay [17], more than 100 µM; in assay [18], more than 100 µM.
On to `Cc1cc2nn(C3CCCCO3)nc2cc1C` (stereo not given), for which the TGI in assay [1], in assay [2], in [3], in assay [4], in [5] and in [6] was more than 100 µM each time. Also, the TGI in assay [7], in [8], in assay [10], in [11], in assay [12] and in [15] was more than 100 µM in each case. The TGI in assay [16], in assay [17], in [19] and in [18] was more than 100 µM each time.
As to `OC1C2CCC3C2CC(C(O)(c2ccccc2)c2ccccc2)C13` (stereo not given), the TGI in [1], in assay [2], in [3], in assay [4], in assay [5] and in [6] was more than 100 µM each time. For the same molecule, the TGI in assay [7], in [8], in assay [9], in [10], in assay [11] and in assay [12] was more than 100 µM throughout. The TGI in assay [13] was more than 100 µM; in assay [14], more than 100 µM; in assay [15], more than 100 µM; in assay [16] it was 96.6 µM; in [17], 95.6 µM; in assay [19] it was more than 100 µM. Also, in assay [18], the TGI was more than 100 µM.
Take `CN(C)CCn1c2c(c3ccccc31)CCc1ccccc1-2`: the TGI in [1] stood at 27.5 µM; in assay [2] it was 29.4 µM; in assay [3] it was 26.3 µM; in assay [4], 31.7 µM; in assay [5], 54.8 µM; in assay [6] it was 28.3 µM. Further, the TGI amounted to 28.4 µM in assay [7]; 32.2 µM in assay [9]; 23.5 µM in [10]; 30.5 µM in assay [11]; 32.7 µM in assay [12]; 40.4 µM in [13]. Moreover, the TGI in assay [14] is 27 µM; in assay [15] it was 26.3 µM; in assay [17] it was 27.7 µM; in assay [19], 29.4 µM; in [18], 29.9 µM.
Regarding `COC1CC(=O)C2C(=O)N(c3ccccc3)C(=O)C23C(C(=O)c2ccccc2)=C(C)NC13O` (stereo not given), the TGI is 45.4 µM in assay [1]; 22.1 µM in assay [2]; 22.6 µM in assay [3]; 54.5 µM in [4]; 14.1 µM in assay [5]; 16.6 µM in assay [6]. Further, the TGI in assay [7] was found to be 5.38 µM; in assay [8], 0.21 µM; in assay [9], 28.9 µM; in [10], 34.5 µM; in assay [11], 20.2 µM; in [12], 54 µM. The TGI in assay [13] was found to be 23 µM; in [14] it was 25.2 µM; in [15], 35.6 µM; in assay [17], 56.2 µM; in assay [19] it was 6.3 µM; in assay [18], 50.9 µM.
On to `O=C1OCCC12CN(Cc1ccccc1)N=N2` (stereo not given), for which the TGI in assay [1], in assay [2], in assay [3], in [4], in [5] and in assay [6] was more than 100 µM in each case. For the same molecule, the TGI in assay [7], in assay [8], in assay [10], in [11], in assay [12] and in assay [13] was more than 100 µM throughout. The TGI in assay [14], in assay [15], in [16], in assay [19] and in [18] was more than 100 µM in each case.
Turning to `CCOC(=O)C1C(c2ccco2)C2(C#N)C(=N)OC1(C)C2(C#N)C#N` (stereo not given), the TGI in assay [2], in assay [3], in assay [4], in [5], in assay [7] and in assay [8] was more than 100 µM in each case. For the same molecule, the TGI in [9], in assay [10], in assay [11], in assay [12], in [13] and in assay [14] was more than 100 µM throughout. Besides, the TGI in assay [15], in assay [16], in assay [17], in assay [19] and in [18] was more than 100 µM in each case.
Consider `Clc1ccc(C2ON=C(c3ccccc3)N2C23CC4CC(CC(C4)C2)C3)cc1Cl` (stereo not given), for which the TGI in assay [1], in [2], in assay [3], in assay [4], in assay [5] and in assay [6] was more than 10 µM throughout. Besides, the TGI in assay [7], in [8], in [9], in [10], in assay [11] and in [12] was more than 10 µM each time. For the same molecule, the TGI in assay [13], in [14], in assay [15], in assay [16], in assay [17] and in assay [19] was more than 10 µM throughout. Besides, in [18], the TGI is more than 10 µM.
Consider `CC(C)C(C)C(O)C(O)C(C)C1CCC2C3COC(=O)C4CC(O)C(O)CC4(C)C3CCC12C` (stereo not given), for which the TGI is more than 100 µM in assay [1]; 26.3 µM in assay [2]; more than 100 µM in assay [3]; more than 100 µM in assay [4]; more than 100 µM in assay [5]; more than 100 µM in assay [6]. Also, the TGI in [7], in [8], in assay [9], in [10], in [11] and in [12] was more than 100 µM throughout. The TGI in assay [13] was more than 100 µM; in assay [14], more than 100 µM; in assay [15] it was more than 100 µM; in assay [16] it was 67.4 µM; in assay [17], more than 100 µM; in assay [19] it was more than 100 µM. In addition, the TGI in assay [18] was more than 100 µM.
As to `Cn1cc(S(=O)(=O)NC(=O)Nc2ccc(Cl)cc2)c(=O)c2ccc(Cl)cc21`, the TGI in assay [1], in [2], in assay [3], in assay [4], in assay [5] and in [6] was more than 100 µM each time. The TGI in [7], in assay [8], in assay [9], in assay [10], in [11] and in [12] was more than 100 µM each time. In addition, the TGI was more than 100 µM in [13]; more than 100 µM in [15]; more than 100 µM in assay [16]; more than 100 µM in assay [17]; 41.4 µM in [19]; more than 100 µM in assay [18].
As to `CC(SC(=S)N(C)C)C(=O)Nc1nnc(-c2ccc(Cl)cc2)o1` (stereo not given), the TGI is more than 100 µM in assay [1]; more than 100 µM in assay [3]; more than 100 µM in [4]; more than 100 µM in assay [5]; more than 100 µM in [6]; 69.7 µM in [7]. In addition, the TGI was more than 100 µM in [8]; 33.8 µM in assay [9]; more than 100 µM in [10]; more than 100 µM in assay [11]; more than 100 µM in assay [12]; more than 100 µM in assay [13]. Moreover, the TGI in assay [14], in assay [16], in assay [17] and in assay [18] was more than 100 µM in each case.
For the molecule `NCc1ccc(O)c(O)c1O`, the TGI in assay [1] is 34 µM; in assay [2], more than 46.4 µM; in [3], 30.5 µM; in [4] it was 40.5 µM; in [5], 71.6 µM; in [6], 41 µM. For the same molecule, the TGI in [7] was 30.1 µM; in assay [8], 60.6 µM; in assay [9], 32 µM; in assay [20] it was 59.1 µM; in [10], more than 100 µM; in [11] it was more than 100 µM. Moreover, the TGI in assay [12] is more than 100 µM; in assay [13], 43.3 µM; in [14], more than 96 µM; in [15], 49 µM; in [16], more than 81.1 µM; in [17], more than 75.6 µM. In [19], this molecule had a TGI of more than 90.9 µM.
Take `O=C1CSC(c2c[nH]c3ccccc23)N1c1cccc([N+](=O)[O-])c1` (stereo not given): the TGI in assay [1], in assay [3], in assay [4], in assay [5], in [6] and in [7] was more than 100 µM each time. Besides, the TGI in assay [8], in [9], in assay [20], in assay [10], in assay [11] and in assay [12] was more than 100 µM throughout. In addition, the TGI in assay [13], in [14], in assay [15], in assay [16], in assay [17] and in assay [19] was more than 100 µM throughout.
`Cc1ccc(N/C(=C(/C(Cl)=C(Cl)Cl)[N+](=O)[O-])n2nnc3ccccc32)cc1`: the TGI amounted to 34.4 µM in [1]; 31.6 µM in [2]; 75.5 µM in [3]; 41 µM in [4]; 52.5 µM in assay [5]; 39.6 µM in assay [6]. The TGI in assay [7] is 38.4 µM; in [8], more than 100 µM; in [10], 33.8 µM; in assay [12], 35.8 µM; in [13], 43.5 µM; in assay [15], 47.7 µM. Also, the TGI came out at 62.7 µM in assay [17] and 69.5 µM in assay [18].
In the case of `Cn1c(=O)c2c(nc(N3CCOCC3)n2CCCNCC(O)c2ccc(O)c(O)c2)n(C)c1=O` (stereo not given), the TGI in assay [1], in [2], in assay [3], in [4], in assay [5] and in assay [6] was more than 100 µM in each case. For the same molecule, the TGI in assay [7], in [8], in assay [9], in assay [10], in assay [11] and in assay [12] was more than 100 µM each time. The TGI in assay [13], in assay [14], in [15], in assay [16], in assay [17] and in assay [19] was more than 100 µM each time. Further, the TGI in assay [18] is more than 100 µM.
On to `O=C(O)COc1cc(-c2ccccc2F)nc2cc3c(cc12)OCO3`, for which the TGI in assay [2], in [3], in [4], in [5], in assay [7] and in assay [8] was more than 100 µM throughout. Further, the TGI in assay [9], in assay [10], in assay [11], in [12], in assay [13] and in [14] was more than 100 µM in each case. Besides, the TGI in [15], in assay [16], in [17] and in assay [18] was more than 100 µM in each case.
